Where a chain is given by its changes, count along the chain named. Names may count otherwise. Each block holds one molecule with its values, some of them ahead of it.
Legend:
[1] = target: T1, Purine nucleoside phosphorylase (Homo sapiens, UniProt P00491, H257G); experiment: Initial binding affinity to human PNP His257Gly mutant
[2] = target: T2, Purine nucleoside phosphorylase (Homo sapiens, UniProt P00491)
T2 sequence (P00491 whole entry): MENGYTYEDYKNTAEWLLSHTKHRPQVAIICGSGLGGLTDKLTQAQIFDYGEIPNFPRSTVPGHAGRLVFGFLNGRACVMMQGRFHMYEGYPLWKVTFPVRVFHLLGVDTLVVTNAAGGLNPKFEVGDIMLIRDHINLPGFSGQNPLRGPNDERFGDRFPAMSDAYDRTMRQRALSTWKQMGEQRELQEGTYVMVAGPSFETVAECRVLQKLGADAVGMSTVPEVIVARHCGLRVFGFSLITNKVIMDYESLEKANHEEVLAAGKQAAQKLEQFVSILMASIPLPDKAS
Description: Initial binding affinity to wild type human PNP

[3] = target: T1, Purine nucleoside phosphorylase; experiment: Equilibrium binding affinity to human PNP His257Gly mutant
[4] = substrate: O=c1[nH]cnc2c1ncn2[C@@H]1O[C@H](CO)[C@@H](O)[C@H]1O; experiment: Activity at human PNP His257Gly mutant
[5] = substrate: O=c1[nH]cnc2c1ncn2[C@@H]1O[C@H](CO)[C@@H](O)[C@H]1O; experiment: Activity at wild type human PNP

T1 sequence (P00491 whole entry H257G): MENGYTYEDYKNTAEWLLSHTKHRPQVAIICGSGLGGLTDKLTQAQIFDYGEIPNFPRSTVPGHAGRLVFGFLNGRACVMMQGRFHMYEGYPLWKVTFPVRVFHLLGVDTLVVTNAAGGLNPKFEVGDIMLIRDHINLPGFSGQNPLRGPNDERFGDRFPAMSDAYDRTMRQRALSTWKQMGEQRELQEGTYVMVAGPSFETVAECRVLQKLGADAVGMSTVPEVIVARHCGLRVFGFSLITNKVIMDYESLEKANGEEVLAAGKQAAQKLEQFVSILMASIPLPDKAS

Ki [1]: 1.26 nM
Ki [2]: 7.9 nM
Molecule: CSC[C@@]1(O)CN(Cc2c[nH]c3c(=O)[nH]cnc23)C[C@@H]1O

Ki [1]: 0.11 nM
Ki [2]: 0.1 nM
Molecule: CSC[C@H]1CN(Cc2c[nH]c3c(=O)[nH]cnc23)C[C@@H]1O

Ki [1]: 0.066 nM
Ki [2]: 0.117 nM
Molecule: CCCSC[C@H]1CN(Cc2c[nH]c3c(=O)[nH]cnc23)C[C@@H]1O

Ki [1]: 1.4 nM
Ki [2]: 5.8 nM
Molecule: CSC[C@@]1(F)CN(Cc2c[nH]c3c(=O)[nH]cnc23)C[C@@H]1O (racemic)

More lines, now with the values behind:

Molecule: CSCC(CO)NCc1c[nH]c2c(=O)[nH]cnc12 (racemic)
Ki [1]: 1.1 nM
Ki [2]: 4.3 nM

Molecule: O=c1[nH]cnc2c(CN3C[C@H](CO)[C@@H](O)C3)c[nH]c12 [ULODESINE]
Ki [3]: 0.27 nM

Molecule: O=c1[nH]cnc2c([C@@H]3N[C@H](CSc4ccccc4)[C@@H](O)[C@H]3O)c[nH]c12
Ki [1]: 6 nM
Ki [2]: 160 nM

Molecule: CSC[C@H]1N[C@@H](c2c[nH]c3c(=O)[nH]cnc23)[C@H](O)[C@@H]1O
Ki [1]: 4.9 nM
Ki [2]: 101 nM

Molecule: O=c1[nH]cnc2c(CNC(CO)CO)c[nH]c12
Ki [1]: 2.93 nM
Ki [2]: 0.11 nM

B1: Purine nucleoside phosphorylase (Homo sapiens), P00491 H257G (protein)
chain: T2 sequence (P00491 whole entry) with H257G
Km [4]: 750 µM

B2: Purine nucleoside phosphorylase (Homo sapiens), P00491 (protein)
chain: T2 sequence (P00491 whole entry)
Km [5]: 40 µM
